Data: ChEMBL document CHEMBL1157823, “Cyclopeptide Smac mimetics as antagonists of IAP proteins” (Bioorg Med Chem Lett, 2010)
pIC50, pKi: −log10 of the molar value.

Legend:
[1] = target: T1, E3 ubiquitin-protein ligase XIAP (Homo sapiens, UniProt P98170); assay: Antagonist activity at XIAP BIR3 domain assessed as restoration of caspase 9 activity by caspase-Glo 9 assay; format: functional
[2] = system: MDA-MB-231; assay: Cytotoxicity against human MDA-MB-231 cells after 4 days by WST-8 assay; details: MDA-MB-231, 96 h
[3] = system: SK-OV-3; assay: Cytotoxicity against human SKOV3 cells after 4 days by WST-8 assay; details: SK-OV-3, 96 h
[4] = target: Baculoviral IAP repeat-containing protein 2 (Homo sapiens, UniProt Q13490); assay: Binding affinity to cIAP1 BIR3 domain by fluorescence polarization assay
[5] = target: T1, E3 ubiquitin-protein ligase XIAP; assay: Binding affinity to XIAP linker BIR2-BIR3 domain site 2 by fluorescence polarization assay
[6] = target: T1, E3 ubiquitin-protein ligase XIAP; assay: Binding affinity to XIAP linker BIR2-BIR3 domain site 1 by fluorescence polarization assay

T1 sequence (P98170 whole entry, the tested form may be a part): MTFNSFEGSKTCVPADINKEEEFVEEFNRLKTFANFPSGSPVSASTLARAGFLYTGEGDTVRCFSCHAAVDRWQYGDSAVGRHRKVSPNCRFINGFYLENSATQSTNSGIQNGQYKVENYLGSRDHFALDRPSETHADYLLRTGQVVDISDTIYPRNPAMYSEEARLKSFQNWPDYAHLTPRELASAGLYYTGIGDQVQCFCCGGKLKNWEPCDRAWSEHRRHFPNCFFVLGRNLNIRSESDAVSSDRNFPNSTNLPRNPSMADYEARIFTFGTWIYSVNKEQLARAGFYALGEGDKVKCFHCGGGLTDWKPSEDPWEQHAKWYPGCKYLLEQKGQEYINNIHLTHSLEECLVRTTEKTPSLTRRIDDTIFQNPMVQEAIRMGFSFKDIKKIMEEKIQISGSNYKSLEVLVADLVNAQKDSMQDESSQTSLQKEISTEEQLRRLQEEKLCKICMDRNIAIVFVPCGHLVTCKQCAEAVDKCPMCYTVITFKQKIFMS
Baculoviral IAP repeat-containing protein 2, sequence (Q13490 whole entry, the tested form may be a part): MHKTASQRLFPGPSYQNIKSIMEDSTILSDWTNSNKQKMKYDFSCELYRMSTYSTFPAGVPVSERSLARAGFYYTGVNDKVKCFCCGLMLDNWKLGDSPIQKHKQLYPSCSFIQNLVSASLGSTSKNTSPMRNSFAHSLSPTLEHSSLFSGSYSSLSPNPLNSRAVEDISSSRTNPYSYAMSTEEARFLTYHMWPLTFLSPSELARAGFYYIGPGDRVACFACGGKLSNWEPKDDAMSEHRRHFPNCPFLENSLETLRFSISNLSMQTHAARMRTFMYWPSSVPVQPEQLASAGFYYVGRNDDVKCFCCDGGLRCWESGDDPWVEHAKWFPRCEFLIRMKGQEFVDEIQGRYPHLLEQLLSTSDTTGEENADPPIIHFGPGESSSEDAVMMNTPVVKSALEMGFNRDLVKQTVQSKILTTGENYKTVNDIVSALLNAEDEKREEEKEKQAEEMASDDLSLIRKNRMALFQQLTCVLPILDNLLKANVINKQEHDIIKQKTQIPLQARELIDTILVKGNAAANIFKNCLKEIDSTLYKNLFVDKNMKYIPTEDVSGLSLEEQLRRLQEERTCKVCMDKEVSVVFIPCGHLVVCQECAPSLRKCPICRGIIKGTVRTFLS

For `CN[C@@H](C)C(=O)N[C@H]1CCCCn2cc(nn2)[C@H](c2ccccc2)NC(=O)[C@@H]2CCCN2C(=O)[C@@H](NC(=O)[C@H](C)NC)CCCCn2cc(nn2)[C@H](c2ccccc2)NC(=O)[C@@H]2CCCN2C1=O`, the Activity [1] was “Dose-dependent effect”.
With `CN[C@@H](C)C(=O)N[C@H]1CCCCn2cc(nn2)[C@H](Cc2ccccc2)NC(=O)[C@@H]2CCCN2C(=O)[C@@H](NC(=O)[C@H](C)NC)CCCCn2cc(nn2)[C@H](Cc2ccccc2)NC(=O)[C@@H]2CCCN2C1=O` the pIC50 [2] was 4.59, the pIC50 [3] was 4.50 and the Activity [1] was “Dose-dependent effect”. It also gave a pKi [4] of 6.79.
For `CN[C@@H](C)C(=O)N[C@H]1CCCNC(=O)[C@H](Cc2ccccc2)NC(=O)[C@@H]2CCCN2C(=O)[C@@H](NC(=O)[C@H](C)NC)CCCNC(=O)[C@H](Cc2ccccc2)NC(=O)[C@@H]2CCCN2C1=O`, the pIC50 [2] was 5.34, the pIC50 [5] was 6.32 and the pIC50 [3] was 4.80. For the same compound, the Activity [1] was “Dose-dependent effect”, the pKi [4] was 7.08 and the pIC50 [6] was 9.00.
